Data set [1] relates to Trypanosoma cruzi. Put plainly: Antitrypanosomal activity against Trypanosoma cruzi. The format is functional, organism-based.
In data set [2] the test system is Trypanosoma brucei rhodesiense. Briefly: Antitrypanosomal activity against Trypanosoma brucei rhodesiense. The format is functional, organism-based.
Data set [3] concerns Trichomonas vaginalis. Briefly: Antiprotozoal activity against Trichomonas vaginalis assessed as reduction in […] at 250 ug/ml at relative to control. The format is functional.
The next data set relates to Entamoeba histolytica. Briefly: […] activity against Entamoeba histolytica. Format: functional, organism-based.
The subject of data set [4] is Trichomonas vaginalis. Briefly: Antitrichomonal activity against Trichomonas vaginalis assessed as reduction in parasite viability at 125 ug/ml relative to control. Format: functional.
For data set [5], the system named is Leishmania donovani. Briefly: […] activity against Leishmania donovani. Format: functional, organism-based.
The test system of a further data set is L6. Briefly: Cytotoxicity against rat L6 cells assessed as reduction in cell viability. Format: cell-based.
The subject of a further data set is KB. Briefly: Cytotoxicity against human KB cells assessed as reduction in cell viability. Format: cell-based.
Data set [6] can be described thus: Selectivity index, ratio of IC50 for Trypanosoma brucei rhodesiense to IC50 for human KB cells. Format: toxicity. The following applies: read-out: Ratio IC50.
Data set [7] relates to Trypanosoma cruzi. Put plainly: Antitrypanosomal activity against Trypanosoma cruzi after 48 hrs by [3H]-hypoxanthine incorporation assay. The format is functional, organism-based.
Data set [8] relates to Leishmania donovani. Put plainly: […] activity against Leishmania donovani after 48 hrs by [3H]-hypoxanthine incorporation assay. Format: functional, organism-based.

The values that follow come from ChEMBL document CHEMBL4373731, “Antiprotozoal alkaloid principles of the plant family Amaryllidaceae” (Bioorg Med Chem Lett, 2019).

Structures are written as SMILES. Converted amounts (≈) assume the structure as drawn. A value given as a limit tells only on which side of the number the result lay.

In the case of `CC(=O)O[C@H]1[C@H]2c3cc4c(cc3CN3CCC(=C[C@@H]1OC(C)=O)[C@H]23)OCO4`, the values for the IC50 (in the data set on Trypanosoma cruzi [1]; in [2]) were 1 to 8.4 µg/mL (≈ 2.69 to 22.6 µM) and 1 to 125 µg/mL (≈ 2.69 to 337 µM), respectively. In the data set on Trichomonas vaginalis [3], the Activity is 19%.

Consider `CO[C@@H]1C=C[C@@]23c4cc5c(cc4[C@H](O)N(C[C@@H]2O)[C@H]3C1)OCO5`, for which the results for the IC50 (in the data set on Trypanosoma cruzi [1]; in [2]) were 1.38 to 1.4 µg/mL (≈ 4.35 to 4.41 µM) and 1.1 µg/mL (≈ 3.47 µM), respectively.

As to `CO[C@H]1C=C[C@@]23c4cc5c(cc4CN(C[C@@H]2O)[C@H]3C1)OCO5`, the IC50 in the data set on Entamoeba histolytica is 0.53 µg/mL (≈ 1.76 µM).

For `CO[C@@H]1C=C[C@@]23c4cc5c(cc4[C@H](O)O[C@H]2CN(C)[C@H]3C1)OCO5`, the Activity in the data set on Trichomonas vaginalis [4] stood at 38%.

As to `O[C@H]1[C@H]2c3cc4c(cc3CN3CC[C@H](C[C@@H]1O)[C@H]23)OCO4`, the IC50 is 21.4 µg/mL (≈ 73.9 µM) with Trypanosoma cruzi [1]; above 90 µg/mL in the data set with Leishmania donovani [5]; 3.1 µg/mL (≈ 10.7 µM) in [2]; 27 µg/mL (≈ 93.3 µM) in the data set with L6; above 50 µg/mL in the data set on KB. Moreover, the selectivity ratio in data set [6] is above 16.

On to `COC1C=C[C@@]23CCN(Cc4cc5c(cc42)OCO5)[C@@H]3C1` (some centres not stated), for which the results for the IC50 (in the data set with Trypanosoma cruzi [1]; in the data set with Leishmania donovani [5]; in [2]) were 55.5 µg/mL (≈ 195 µM), above 100 µg/mL and 16.5 µg/mL (≈ 57.8 µM), respectively.

As for `COc1cc2c(cc1O)CN1CC[C@@]23C=CC(O)C[C@H]13` (some centres not stated), the IC50 in the data set on Trypanosoma cruzi [1] was above 90 µg/mL; in the data set with Leishmania donovani [5], above 90 µg/mL; in [2], 61.5 µg/mL (≈ 225 µM).

As to `CO[C@@H]1C=C[C@@]23c4cc5c(cc4CN(C[C@@H]2O)[C@H]3C1)OCO5` [(+)-HAEMANTHAMINE], the IC50 was 1.8 to 30 µg/mL (≈ 5.97 to 99.6 µM) in the data set with Trypanosoma cruzi [1], 1.95 to 30 µg/mL (≈ 6.47 to 99.6 µM) in the data set with Leishmania donovani [5], 0.49 to 3.35 µg/mL (≈ 1.63 to 11.1 µM) in [2] and 0.75 µg/mL (≈ 2.49 µM) in the data set with Entamoeba histolytica.

As to `CC(=O)O[C@@H]1CC=C2CCN3Cc4cc5c(cc4[C@H]1[C@@H]23)OCO5` [ACETYLCARANINE], the IC50 is 35.9 µg/mL (≈ 115 µM) in the data set with Trypanosoma cruzi [1], above 100 µg/mL in the data set on Leishmania donovani [5] and 1.97 µg/mL (≈ 6.29 µM) in data set [2].

Consider `COc1c2c(cc3c1OCO3)[C@@]13CCN(C2)[C@@H]1CC=C[C@H]3O` [BUPHANAMINE], for which the IC50 in the data set with Trypanosoma cruzi [1] is 62.9 µg/mL (≈ 209 µM); with Leishmania donovani [5], above 100 µg/mL; in data set [2], 28.2 µg/mL (≈ 93.6 µM).

With `COc1c2c(cc3c1C(=O)O[C@H]1[C@@H]3[C@H]3C(=C[C@@H]1O)CCN3C)OCO2` [CANDIMINE], the Activity in the data set on Trichomonas vaginalis [3] turned out to be 60%.

`O[C@H]1C=C[C@@]23CCN(Cc4cc5c(cc42)OCO5)[C@@H]3C1` [CRININE] yielded an IC50 in [2] of 18.9 µg/mL (≈ 69.8 µM).

Turning to `COc1ccc2c3c1O[C@H]1C[C@@H](O)C=C[C@@]31CCN(C)C2` [GALANTAMINE], the IC50 (in the data set with Trypanosoma cruzi [1]; with Leishmania donovani [5]; in data set [2]) was above 30 µg/mL throughout.

In turn, `COc1cc2c(cc1OC)[C@@H]1[C@H](O)[C@@H](OC)C=C3CCN(C2)[C@H]31` [GALANTHINE] came in with an IC50 in data set [2] of 3.1 µg/mL (≈ 9.77 µM).

Take `O[C@H]1[C@H]2c3cc4c(cc3CN3CCC(=C[C@@H]1O)[C@H]23)OCO4` [LYCORINE]: the IC50 came out at 3.1 µg/mL (≈ 10.8 µM) in data set [2] and 0.23 µg/mL (≈ 0.801 µM) with Entamoeba histolytica. Moreover, the Activity in the data set with Trichomonas vaginalis [4] is given as 20%; in the data set with Trichomonas vaginalis [3] it was 40%.

For `Nc1nc(N)nc(Nc2ccc([As]3SCC(CO)S3)cc2)n1` (configuration not stated) [MELARSOPROL], the IC50 with Trypanosoma cruzi [1] is 0.36 µg/mL; in the data set with Trypanosoma cruzi [7], 5.42 µg/mL; in the data set with Leishmania donovani [8], 33.3 µg/mL; with Leishmania donovani [5], 0.2 µg/mL; in [2] it was 0.04 µg/mL.

With `CCCCCCCCCCCCCCCCOP(=O)([O-])OCC[N+](C)(C)C` [MILTEFOSINE], the values for the IC50 (in the data set with Trypanosoma cruzi [1]; in the data set on Leishmania donovani [5]; in [2]) were 0.36 µg/mL (≈ 0.883 µM), 0.2 µg/mL (≈ 0.491 µM) and 0.04 µg/mL (≈ 0.0981 µM), respectively.

For the compound `CO[C@H]1C=C2[C@H]3CN(Cc4cc5c(cc43)OCO5)[C@H]2C[C@@H]1O` [MONTANINE], the Activity in the data set with Trichomonas vaginalis [4] came out at 35%.

For `O=C(O)c1cccnc1` [NIACIN], the IC50 in the data set with Trypanosoma cruzi [1] was above 90 µg/mL; with Leishmania donovani [5], 57.4 µg/mL (≈ 466 µM); in data set [2] it was 41.2 µg/mL (≈ 335 µM).

Take `COc1cc2c(cc1O)CN1CCC3=CC[C@@H](O)[C@@H]2[C@@H]31` [NORPLUVINE]: the IC50 in [2] was 90 µg/mL (≈ 329 µM).

In the data set on Entamoeba histolytica, `Cc1ncc([N+](=O)[O-])n1CC(O)CCl` (configuration not stated) [ORNIDAZOLE] showed a 50% inhibitory concentration (IC50) of 0.28 µg/mL (≈ 1.27 µM).

On to `COc1cc([C@@H]2c3cc4c(cc3[C@H](O)[C@H]3COC(=O)[C@H]23)OCO4)cc(OC)c1OC` [PODOFILOX], for which the 50% inhibitory concentration (IC50) in the data set with L6 was found to be 0.005 µg/mL (≈ 0.0121 µM); in the data set with KB, 0.002 µg/mL (≈ 0.00483 µM).

Regarding `COc1cc2c(cc1O)[C@@H]1[C@H](O)[C@@H](O)C=C3CCN(C2)[C@H]31` [PSEUDOLYCORINE], the IC50 in the data set with Trypanosoma cruzi [1] and with Leishmania donovani [5] was above 30 µg/mL each time.

For the compound `CN1CC[C@@]23C=C[C@H](O)C[C@@H]2Oc2c(O)ccc(c23)C1` [SANGUININE], the IC50 was above 30 µg/mL in the data set with Trypanosoma cruzi [1], above 30 µg/mL with Leishmania donovani [5] and 22.5 µg/mL (≈ 82.3 µM) in [2].

Regarding `c1cc2c(c3c1C[C@H]1c4cc5c(cc4CCN1C3)OCO5)OCO2` [STYLOPINE], the IC50 in the data set with Trypanosoma cruzi [1] was determined as 17.5 µg/mL (≈ 54.2 µM); with Leishmania donovani [5], 31.2 µg/mL (≈ 96.4 µM); in [2], 10.9 µg/mL (≈ 33.7 µM).

With `CO[C@@H]1C=C[C@@]23c4cc5c(cc4CO[C@]2(O)CN(C)[C@H]3C1)OCO5` [TAZETTINE], the Activity with Trichomonas vaginalis [4] is recorded as 15%.

As for `[O-]c1cc2c3c(c1)c1cc4c(cc1c[n+]3CC2)OCO4` [UNGEREMINE], the values for the IC50 (in the data set on Trypanosoma cruzi [1]; with Leishmania donovani [5]; in data set [2]) were 0.85 µg/mL (≈ 3.2 µM), above 30 µg/mL and 0.97 µg/mL (≈ 3.66 µM), respectively.
